Tested on: not given
Test: not given
Settings: not given
COc1cccc(C(=O)NCc2ccc(CNS(=O)(=O)c3ccccc3)cc2)c1 [IIIf, 3-Methoxy-N-(4-(phenylsulfonamidomethyl)benzyl)benzamide] showed a melting point of 120 to 122 °C.
In the case of Cc1ccc(S(=O)(=O)NCc2ccc(CNC(=O)c3cccnc3)cc2)cc1 [IIq, N-(4-((4-methylphenylsulfonamido)methyl)benzyl)nicotinamide], the melting point is reported as 120 to 122 °C.
Cc1ccc(S(=O)(=O)NCc2ccc(CNC(=O)c3cccc(C)c3)cc2)cc1 [IIc, 3-Methyl-N-(4-((4-methylphenylsulfonamido)methyl)benzyl)benzamide] gave a melting point of 123 to 125 °C.
In the case of O=C(NCc1ccc(CNS(=O)(=O)c2ccc3c(c2)CCO3)cc1)c1cccc2c1COC2 [Id, N-(4-((2,3-dihydrobenzofuran-5-sulfonamido)methyl)benzyl)-1,3-dihydroisobenzofuran-4-carboxamide], the melting point is reported as 149 to 151 °C.
Molecule Cc1ccc(S(=O)(=O)NCc2ccc(CNC(=O)c3cccc(F)c3)cc2)cc1 [IIi, 3-Fluoro-N-(4-((4-methylphenylsulfonamido)methyl)benzyl)benzamide] has a melting point of 137 to 139 °C.
Molecule O=C(NCc1ccc(CNS(=O)(=O)c2ccccc2)cc1)c1cccnc1 [IIIq, N-(4-(phenylsulfonamidomethyl)benzyl)nicotinamide] has a melting point of 109 to 111 °C.
In the case of Cc1ccccc1C(=O)NCc1ccc(CNS(=O)(=O)c2ccccc2)cc1 [IIIb, 2-Methyl-N-(4-(phenylsulfonamidomethyl)benzyl)benzamide], the melting point is reported as 129 to 131 °C.
Work on O=C(NCc1ccc(CNS(=O)(=O)c2ccccc2)cc1)c1ccccc1F [IIIh, 2-Fluoro-N-(4-(phenylsulfonamidomethyl)benzyl)benzamide] yielded a melting point of 122 to 124 °C.
In the case of Cc1ccc(S(=O)(=O)NCc2ccc(CNC(=O)c3ccccc3F)cc2)cc1 [IIh, 2-Fluoro-N-(4-((4-methylphenylsulfonamido)methyl)benzyl)benzamide], the melting point is reported as 138 to 140 °C.
In the case of Cc1ccc(S(=O)(=O)NCc2ccc(CNC(=O)c3ccccc3C)cc2)cc1 [IIb, 2-Methyl-N-(4-((4-methylphenylsulfonamido)methyl)benzyl)benzamide], the melting point is reported as 147 to 149 °C.
In the case of COc1ccc(C(=O)NCc2ccc(CNS(=O)(=O)c3ccc(C)cc3)cc2)cc1 [IIg, 4-Methoxy-N-(4-((4-methylphenylsulfonamido)methyl)benzyl)benzamide], the melting point is reported as 147 to 149 °C.
For O=C(NCc1ccc(CNS(=O)(=O)c2ccccc2)cc1)c1ccc(Cl)cc1 [IIIn, 4-Chloro-N-(4-(phenylsulfonamidomethyl)benzyl)benzamide], the melting point was 182 to 184 °C.
O=C(NCc1ccc(CNS(=O)(=O)c2ccccc2)cc1)c1ccccc1Cl [IIIk, 2-Chloro-N-(4-(phenylsulfonamidomethyl)benzyl)benzamide] showed a melting point of 116 to 118 °C.
Molecule Cc1ccc(S(=O)(=O)NCc2ccc(CNC(=O)c3ccc(Cl)cc3)cc2)cc1 [IIn, 4-Chloro-N-(4-((4-methylphenylsulfonamido)methyl)benzyl)benzamide] has a melting point of 201 to 203 °C.
Work on COc1cccc(C(=O)NCc2ccc(CNS(=O)(=O)c3ccc(C)cc3)cc2)c1 [IIf, 3-Methoxy-N-(4-((4-methylphenylsulfonamido)methyl)benzyl)benzamide] yielded a melting point of 130 to 132 °C.
With Cc1ccc(S(=O)(=O)NCc2ccc(CNC(=O)c3ccc([N+](=O)[O-])cc3)cc2)cc1 [IIo, N-(4-((4-methylphenylsulfonamido)methyl)benzyl)-4-nitrobenzamide] the melting point was 207 to 209 °C.
Cn1nccc1C(=O)NCc1ccc(CNS(=O)(=O)c2ccc3c(c2)CCO3)cc1 [Ic, N-(4-((2,3-dihydrobenzofuran-5-sulfonamido)methyl)benzyl)-1-methyl-1H-pyrazole-5-carboxamide] gave a melting point of 143 to 145 °C.
With O=C(NCc1ccc(CNS(=O)(=O)c2ccccc2)cc1)c1ccc([N+](=O)[O-])cc1 [IIIo, 4-Nitro-N-(4-(phenylsulfonamidomethyl)benzyl)benzamide] the melting point was 201 to 203 °C.
Work on O=C(NCc1ccc(CNS(=O)(=O)c2ccccc2F)cc1)c1cc2ccccn2n1 [Ij, N-(4-((2-fluorophenylsulfonamido)methyl)benzyl)pyrazolo[1,5-a]pyridine-2-carboxamide] yielded a melting point of 138 to 140 °C.
In the case of O=C(NCc1ccc(CNS(=O)(=O)c2ccccc2)cc1)c1ccncc1 [IIIr, N-(4-(phenylsulfonamidomethyl)benzyl)isonicotinamide], the melting point is reported as 154 to 156 °C.
Work on O=C(NCc1ccc(CNS(=O)(=O)c2ccccc2)cc1)c1cccc(Cl)c1 [IIIm, 3-Chloro-N-(4-(phenylsulfonamidomethyl)benzyl)benzamide] yielded a melting point of 114 to 116 °C.
Molecule Cc1ccc(S(=O)(=O)NCc2ccc(CNC(=O)c3ccccc3)cc2)cc1 [IIa, N-(4-((4-methylphenylsulfonamido)methyl)benzyl)benzamide] has a melting point of 162 to 164 °C.
COc1ccccc1C(=O)NCc1ccc(CNS(=O)(=O)c2ccc(C)cc2)cc1 [IIe, 2-Methoxy-N-(4-((4-methylphenylsulfonamido)methyl)benzyl)benzamide] showed a melting point of 154 to 156 °C.
Molecule O=C(NCc1ccc(CNS(=O)(=O)c2ccc3c(c2)CCO3)cc1)c1cc2ccccn2n1 [Ib, N-(4-((2,3-dihydrobenzofuran-5-sulfonamido)methyl)benzyl)pyrazolo[1,5-a]pyridine-2-carboxamide] has a melting point of 180 to 182 °C.
Molecule O=C(NCc1ccc(CNS(=O)(=O)c2ccc(F)c(F)c2)cc1)c1cnc2ccccn12 [Ii, N-(4-((3,4-difluorophenylsulfonamido)methyl)benzyl)imidazo[1,2-a]pyridine-3-carboxamide] has a melting point of 192 to 194 °C.
In the case of Cc1ccc(S(=O)(=O)NCc2ccc(CNC(=O)c3cccc(Cl)c3)cc2)cc1 [IIm, 3-Chloro-N-(4-((4-methylphenylsulfonamido)methyl)benzyl)benzamide], the melting point is reported as 110 to 112 °C.
Molecule Cc1ccc(C(=O)NCc2ccc(CNS(=O)(=O)c3ccc(C)cc3)cc2)cc1 [IId, 4-Methyl-N-(4-((4-methylphenylsulfonamido)methyl)benzyl)benzamide] has a melting point of 180 to 182 °C.
Work on O=C(NCc1ccc(CNS(=O)(=O)c2ccc(F)cc2F)cc1)c1ncc[nH]1 [Ie, N-(4-((2,4-difluorophenylsulfonamido)methyl)benzyl)-1H-imidazole-2-carboxamide] yielded a melting point of 225 to 227 °C.
In the case of Cc1ccc(S(=O)(=O)NCc2ccc(CNC(=O)c3ccccc3Cl)cc2)cc1 [IIk, 2-Chloro-N-(4-((4-methylphenylsulfonamido)methyl)benzyl)benzamide], the melting point is reported as 140 to 142 °C.
For Cc1ccc(C(=O)NCc2ccc(CNS(=O)(=O)c3ccccc3)cc2)cc1 [IIId, 4-Methyl-N-(4-(phenylsulfonamidomethyl)benzyl)benzamide], the melting point was 188 to 190 °C.
Work on COc1ccc(C(=O)NCc2ccc(CNS(=O)(=O)c3ccccc3)cc2)cc1 [IIIg, 4-Methoxy-N-(4-(phenylsulfonamidomethyl)benzyl)benzamide] yielded a melting point of 164 to 166 °C.
Cc1ccc(S(=O)(=O)NCc2ccc(CNC(=O)c3ccncc3)cc2)cc1 [IIr, N-(4-((4-methylphenylsulfonamido)methyl)benzyl)isonicotinamide] gave a melting point of 163 to 165 °C.
Molecule O=C(NCc1ccc(CNS(=O)(=O)c2cccc(F)c2)cc1)c1cc2ccccn2n1 [Ih, N-(4-((3-fluorophenylsulfonamido)methyl)benzyl)pyrazolo[1,5-a]pyridine-2-carboxamide] has a melting point of 163 to 165 °C.
Cc1cccc(C(=O)NCc2ccc(CNS(=O)(=O)c3ccccc3)cc2)c1 [IIIc, 3-Methyl-N-(4-(phenylsulfonamidomethyl)benzyl)benzamide] gave a melting point of 112 to 114 °C.
With COc1ccccc1C(=O)NCc1ccc(CNS(=O)(=O)c2ccccc2)cc1 [IIIe, 2-Methoxy-N-(4-(phenylsulfonamidomethyl)benzyl)benzamide] the melting point was 123 to 125 °C.
In the case of O=C(NCc1ccc(CNS(=O)(=O)c2ccccc2)cc1)c1c(Cl)cc(Cl)cc1Cl [IIIp, 2,4,6-Trichloro-N-(4-(phenylsulfonamidomethyl)benzyl)benzamide], the melting point is reported as 158 to 160 °C.
Work on Cc1ccc(S(=O)(=O)NCc2ccc(CNC(=O)c3c(Cl)cc(Cl)cc3Cl)cc2)cc1 [IIp, 2,4,6-Trichloro-N-(4-((4-methylphenylsulfonamido)methyl)benzyl)benzamide] yielded a melting point of 188 to 190 °C.

Target: T1, CXCR4 (Homo sapiens, UniProt P61073)
T1 construct: endogenous in cells; host or cells: MDA-MB-231
T1 sequence (P61073 whole entry): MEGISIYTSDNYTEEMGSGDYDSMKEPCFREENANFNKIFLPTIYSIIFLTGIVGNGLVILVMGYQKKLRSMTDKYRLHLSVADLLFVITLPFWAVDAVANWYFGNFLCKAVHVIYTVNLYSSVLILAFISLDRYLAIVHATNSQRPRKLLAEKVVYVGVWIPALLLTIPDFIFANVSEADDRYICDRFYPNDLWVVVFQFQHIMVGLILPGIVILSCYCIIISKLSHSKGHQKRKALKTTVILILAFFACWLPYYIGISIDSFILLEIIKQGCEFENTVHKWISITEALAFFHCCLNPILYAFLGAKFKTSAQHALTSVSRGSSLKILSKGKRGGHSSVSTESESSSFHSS
Test: Primary binding affinity screening (competition with biotinylated TN14003 on MDA-MB-231 cells)
Settings: EC relative to AMD3100
Experimental: For binding affinity assay, 2×10^4 MDA-MB-231 cells in 300 μL of cell culture medium were seeded in an 8-well slide chamber 2 days before the experiments were conducted. Various concentrations of different compounds (1, 10, 100, or 1000 nM) were added to the separate wells and incubated for 10 minutes at room temperature, and then the cells were fixed in 4% ice-cold paraformaldehyde. The cells were rehydrated in phosphate-buffered saline (PBS). The slides were subsequently incubated for 30 minutes at room temperature with 0.05 μg/mL biotinylated TN14003, washed three times with PBS, and incubated in streptavidin-rhodamine (1:150 dilution; Jackson ImmunoResearch Laboratories, West Grove, Pa.) for 30 minutes at room temperature. Finally, the slides were washed with PBS and mounted in an anti-fade mounting solution (Molecular Probes, Eugene, Oreg.), and the samples were analyzed on a Nikon Eclipse E800 microscope.
In the case of O=C(NCc1ccc(CNS(=O)(=O)c2ccccc2)cc1)c1ccc(F)cc1 [IIIj, 4-Fluoro-N-(4-(phenylsulfonamidomethyl)benzyl)benzamide], the “potency compared with AMD3100” value is reported as 1000 fold.
In the case of Cc1ccccc1C(=O)NCc1ccc(CNS(=O)(=O)c2ccccc2)cc1 [IIIb, 2-Methyl-N-(4-(phenylsulfonamidomethyl)benzyl)benzamide], the “potency compared with AMD3100” value is reported as 1000 fold.
In the case of “Fluoro-N-(4-(phenylsulfonamidomethyl)benzyl)benzamide [IIIi]”, the “potency compared with AMD3100” value is reported as 1000 fold.
With COc1ccccc1C(=O)NCc1ccc(CNS(=O)(=O)c2ccccc2)cc1 [IIIe, 2-Methoxy-N-(4-(phenylsulfonamidomethyl)benzyl)benzamide] the “potency compared with AMD3100” value was 1000 fold.

Same assay, conditions: MDA-MB-231 cells; compounds at 1, 10, 100, or 1000 nM; biotinylated TN14003
O=C(NCc1ccc(CNS(=O)(=O)c2ccccc2)cc1)c1ccc(F)cc1 [IIIj, 4-Fluoro-N-(4-(phenylsulfonamidomethyl)benzyl)benzamide] showed an EC of 1 nM.
Molecule Cc1ccccc1C(=O)NCc1ccc(CNS(=O)(=O)c2ccccc2)cc1 [IIIb, 2-Methyl-N-(4-(phenylsulfonamidomethyl)benzyl)benzamide] has an EC of 1 nM.
“Fluoro-N-(4-(phenylsulfonamidomethyl)benzyl)benzamide [IIIi]” gave an EC of 1 nM.
O=C(NCc1ccc(CNS(=O)(=O)c2ccccc2)cc1)c1ccc(CNc2ncccn2)cc1 [N-(4-(phenylsulfonamidomethyl)benzyl)-4-((pyrimidin-2-ylamino)methyl)benzamide] showed an EC of 1 nM.
In the case of COc1ccccc1C(=O)NCc1ccc(CNS(=O)(=O)c2ccccc2)cc1 [IIIe, 2-Methoxy-N-(4-(phenylsulfonamidomethyl)benzyl)benzamide], the EC is reported as 1 nM.
